Test results reported in the SangsterLogP compilation.

Experiment: method code SF-AS, from DOI: 10.1016/0223-5234(92)90084-e
Conditions: not given

SMILES | logP
CC(C(=O)O)c1ccc(-c2nc3c(s2)CCCC3)cc1 (centres undefined) | 4.41
Cc1csc(-c2ccc(C(C)C(=O)O)cc2)n1 (centres undefined) | 3.03
CC(C(=O)O)c1ccc(-c2nc(CO)cs2)cc1 (centres undefined) | 2.25
CC(C(=O)O)c1ccc(-c2nccs2)c(Cl)c1 (centres undefined) | 3.39
CCc1csc(-c2ccc(C(C)C(=O)O)cc2)n1 (centres undefined) | 3.75
CC(C(=O)O)c1ccc(-c2nccs2)c([N+](=O)[O-])c1 (centres undefined) | 2.06
CCCCc1csc(-c2ccc(C(C)C(=O)O)cc2Cl)n1 (centres undefined) | 4.84
CCCCc1csc(-c2ccc(C(C)C(=O)O)cc2)n1 (centres undefined) | 4.04
COCc1csc(-c2ccc(C(C)C(=O)O)cc2)n1 (centres undefined) | 2.78

Now from value to molecule:

logP | SMILES
3.36 | Cc1nc(-c2ccc(C(C)C(=O)O)cc2)sc1C (centres undefined)
3.65 | Cc1csc(-c2ccc(C(C)C(=O)O)cc2Cl)n1 (centres undefined)
3.74 | Cc1nc(-c2ccc(C(C)C(=O)O)cc2F)sc1C (centres undefined)
3.99 | CCc1nc(-c2ccc(C(C)C(=O)O)cc2)sc1C (centres undefined)
4.66 | CCCCc1csc(-c2ccc(C(C)C(=O)O)cc2F)n1 (centres undefined)
4.1 | CCc1cnc(-c2ccc(C(C)C(=O)O)cc2F)s1 (centres undefined)
3.52 | Cc1csc(-c2ccc(C(C)C(=O)O)cc2F)n1 (centres undefined)
3.55 | Cc1cnc(-c2ccc(C(C)C(=O)O)cc2F)s1 (centres undefined)
3.66 | Cc1cnc(-c2ccc(C(C)C(=O)O)cc2Cl)s1 (centres undefined)
3.94 | Cc1nc(-c2ccc(C(C)C(=O)O)cc2Cl)sc1C (centres undefined)
2.47 | COc1cc(C(C)C(=O)O)ccc1-c1nccs1 (centres undefined)
4.39 | CCc1cnc(-c2ccc(C(C)C(=O)O)cc2Cl)s1 (centres undefined)
3.14 | CC(C(=O)O)c1ccc(-c2nccs2)c(F)c1 (centres undefined)

Same assay, conditions: pH 2.0

SMILES | logD
CC(C(=O)O)c1ccc(-c2nc(C(=O)N(C)C)cs2)cc1 (centres undefined) | 2.15
CC(C(=O)O)c1ccc(-c2nc(C(N)=O)cs2)cc1 (centres undefined) | 2.17
CC(C(=O)O)c1ccc(-c2nc(-c3ccccc3)cs2)cc1 (centres undefined) | 4.81
C=Cc1csc(-c2ccc(C(C)C(=O)O)cc2)n1 (centres undefined) | 3.54
CC(=O)c1csc(-c2ccc(C(C)C(=O)O)cc2)n1 (centres undefined) | 2.65
CNC(=O)c1csc(-c2ccc(C(C)C(=O)O)cc2)n1 (centres undefined) | 2.45
C=CCc1csc(-c2ccc(C(C)C(=O)O)cc2)n1 (centres undefined) | 3.4
CC(C(=O)O)c1ccc(-c2nc(C(F)(F)F)cs2)cc1 (centres undefined) | 3.78

The next lines start with the values.

logD | SMILES
3.58 | CCc1csc(-c2ccc(C(C)C(=O)O)cc2F)n1 (centres undefined)
4.26 | CC(C)c1csc(-c2ccc(C(C)C(=O)O)cc2Cl)n1 (centres undefined)
4.04 | CC(C)c1csc(-c2ccc(C(C)C(=O)O)cc2F)n1 (centres undefined)

Same assay, conditions: pH 3.4

logD | SMILES
2.45 | CC(C(=O)O)c1ccc(-c2nccs2)c(N)c1 (centres undefined)
